Source: patent US12630534B2 (TAKEDA PHARMACEUTICAL COMPANY LIMITED, priority 2020, dated 2026)

Biological target: T1, human GPR139 (Homo sapiens, UniProt Q6DWJ6)
T1 construct: expressed in transfected cells; host or cells: CHO-TREx (Life Technologies) cells, expression induced with doxycycline
T1 sequence (Q6DWJ6 1-353): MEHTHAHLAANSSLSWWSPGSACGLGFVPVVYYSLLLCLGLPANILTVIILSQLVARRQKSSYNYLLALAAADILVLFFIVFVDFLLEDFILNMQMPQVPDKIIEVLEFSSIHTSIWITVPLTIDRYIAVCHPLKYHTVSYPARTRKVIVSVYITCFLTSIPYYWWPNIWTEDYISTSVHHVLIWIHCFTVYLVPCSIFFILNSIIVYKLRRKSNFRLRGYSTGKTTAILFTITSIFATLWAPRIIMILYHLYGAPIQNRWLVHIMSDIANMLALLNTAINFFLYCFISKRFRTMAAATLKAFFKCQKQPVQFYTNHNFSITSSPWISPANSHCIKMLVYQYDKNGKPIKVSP
Assay: Inhibition rate of the amount of IP1 in GPR139-expressed CHO cells (inverse agonist assay, Test Example 2)
Assay type: cell-based
Settings: CHO, relative value, inhibition rate of Example Compound 2 in Test Example 1 defined as 100%
Method in brief: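 CHO-TREx cells with doxycycline-inducible human GPR139 (2 μg/mL, 17 h) were incubated with compound at 2000 cells/well for 40 min at 37° C. IP1 quantified by HTRF (665/615 nm ratio ×10000); inhibition rate expressed relative to a reference compound defined as […].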

SMILES | inhibition at 30 µM [%]
CCn1cc(Cn2ccn(-c3cc(N4CCOC(C)(C)C4)cc(C(F)(F)F)c3F)c2=O)cn1 [Example 12, 1-[5-(2,2-dimethylmorpholin-4-yl)-2-fluoro-3-(trifluoromethyl)phenyl]-3-[(1-ethyl-1H-pyrazol-4-yl)methyl]-1,3-dihydro-2H-imidazol-2-one] | 98
CCn1cc(Cn2cc(C)n(-c3cc(C4CC4)cc(N4CCOC(C)(C)C4)c3)c2=O)cn1 [Example 147, 3-[3-cyclopropyl-5-(2,2-dimethylmorpholin-4-yl)phenyl]-1-[(1-ethyl-1H-pyrazol-4-yl)methyl]-4-methyl-1,3-dihydro-2H-imidazol-2-one] | 100
CCn1cc(Cn2ccn(-c3cc(N4C[C@@H](C)O[C@H](C)C4)cc(C(F)(F)F)c3F)c2=O)cn1 [Example 34, 1-{5-[(2R,6R)-2,6-dimethylmorpholin-4-yl]-2-fluoro-3-(trifluoromethyl)phenyl}-3-[(1-ethyl-1H-pyrazol-4-yl)methyl]-1,3-dihydro-2H-imidazol-2-one] | 100
CCn1cc(Cn2ccn(-c3nc(N4CCO[C@H](C)C4)cc(C(F)(F)F)c3C)c2=O)cn1 [Example 42, 1-[(1-ethyl-1H-pyrazol-4-yl)methyl]-3-{3-methyl-6-[(2R)-2-methylmorpholin-4-yl]-4-(trifluoromethyl)pyridin-2-yl}-1,3-dihydro-2H-imidazol-2-one] | 99
CCn1cc(Cn2c(Cl)nn(-c3cc(N4CCO[C@H](C)C4)cc(C(F)(F)F)c3F)c2=O)cn1 [Example 155, 5-chloro-4-[(1-ethyl-1H-pyrazol-4-yl)methyl]-2-{2-fluoro-5-[(2R)-2-methylmorpholin-4-yl]-3-(trifluoromethyl)phenyl}-2,4-dihydro-3H-1,2,4-triazol-3-one] | 101
CCn1cc(Cn2ccn(-c3cc(N(C)C4CCOCC4)cc(C(F)(F)F)c3F)c2=O)cn1 [Example 10, 1-[(1-ethyl-1H-pyrazol-4-yl)methyl]-3-{2-fluoro-5-[methyl(oxan-4-yl)amino]-3-(trifluoromethyl)phenyl}-1,3-dihydro-2H-imidazol-2-one] | 100
CCn1cc(Cn2cc(C)n(-c3cc(C(F)(F)F)cc(N4CCOC(F)(F)C4)n3)c2=O)cn1 [Example 111, 3-[6-(2,2-difluoromorpholin-4-yl)-4-(trifluoromethyl)pyridin-2-yl]-1-[(1-ethyl-1H-pyrazol-4-yl)methyl]-4-methyl-1,3-dihydro-2H-imidazol-2-one] | 105
CCn1cc(Cn2c(C)c(C)n(-c3cc(C4CC4)cc(N4CCO[C@H](C)C4)n3)c2=O)cn1 [Example 162, 1-{4-cyclopropyl-6-[(2R)-2-methylmorpholin-4-yl]pyridin-2-yl}-3-[(1-ethyl-1H-pyrazol-4-yl)methyl]-4,5-dimethyl-1,3-dihydro-2H-imidazol-2-one] | 101
CCn1cc(Cn2cc(C)n(-c3cc(Br)cc(N4CCO[C@H](C)C4)c3)c2=O)cn1 [Example 89, 3-{3-bromo-5-[(2R)-2-methylmorpholin-4-yl]phenyl}-1-[(1-ethyl-1H-pyrazol-4-yl)methyl]-4-methyl-1,3-dihydro-2H-imidazol-2-one] | 101
CCc1nn(-c2cc(N3CCOC(C)(C)C3)cc(C(F)(F)F)c2F)c(=O)n1Cc1cnn(CC)c1 [Example 136, 2-[5-(2,2-dimethylmorpholin-4-yl)-2-fluoro-3-(trifluoromethyl)phenyl]-5-ethyl-4-[(1-ethyl-1H-pyrazol-4-yl)methyl]-2,4-dihydro-3H-1,2,4-triazol-3-one] | 100
Cc1cn(Cc2cnn(C(C)C)c2)c(=O)n1-c1cc(C2CC2)cc(N2CCOC(C)(C)C2)n1 [Example 130, 3-[4-cyclopropyl-6-(2,2-dimethylmorpholin-4-yl)pyridin-2-yl]-4-methyl-1-{[1-(propan-2-yl)-1H-pyrazol-4-yl]methyl}-1,3-dihydro-2H-imidazol-2-one] | 100
